Reference: patent publication EP2133323B1, “The production and use of 3,5-dicaffeoyl-4-malonylquinic acid” (I.R.B. Istituto Di Ricerche Biotecnologiche S.r.l., priority 2008, dated 2009)
One block for each compound: values may come before it.

Key:
[1] = system: Staphylococcus aureus ATCC6538; assay: Multiple dilution antimicrobial assay, CFU count in culture-broth; assay type: cell-based
Description: (§1) With the aim of identifying any potential antimicrobial activity in the compound 3,5-dicaffeoyl-4-malonylquinic acid, microbiological assays, generally known as multiple dilution assays, have been prepared. The results obtained from said assays have shown the antimicrobial activity of the compound against the following strains: • Staphylococcus aureus ATCC6538 • Malassezia furfur DSMZ4167
(§2) The compound has been tested at concentrations of 5 mg/ml, 2 mg/ml and 1 mg/ml.
(§3) The microbial strains used for testing have been inoculated into culture-broth (in Tryptone soy broth medium, for Malassezia furfur the culture medium has been supplemented with 2 ml/100 ml of olive oil) containing the test compound at the concentrations described above. In parallel with these tests, culture broths containing the microbial strain alone have been prepared (controls). The culture-broths have been incubated at 30°C for a period of 7 days. Samples of the various culture-broths have been taken at 0 and 7 days, with the aim of counting the number of CFU/ml in relation to the various microbial strains, by plating the cultures on solid medium. A certain number of serial dilutions have been prepared for each sample in order to determine the microbial load of each culture-broth. Each dilution has been assayed in triplicate on solid medium. Then number of CFUs reported in the table is the mean of the counts performed on the triplicate assays. Table 4: the effect of 3,5-dicaffeoyl-4-malonylquinic acid on the growth of Staphylococcus aureus ATCC 6538

[2] = system: Malassezia furfur DSMZ4167; assay: as above; assay type: cell-based; conditions: for T7d: sample at 7 days, 30°C
Description: as §1, §2, §3

[3] = system: metalloproteinases (MMP); assay: Metalloproteinase inhibition, 3D model with type-1 collagen gel and BALB 3T3 fibroblasts (hydroxyproline content); assay type: cell-based; conditions: 48 hours; at higher concentrations collagen increases only through reduced cell number
Excerpt: Metalloproteinase inhibitory activity has been evaluated by preparation of an in vitro assay known as the "3D model" envisaging the use of a type-1 collagen gel and BALB 3T3 fibroblast cells. In this assay model, fibroblasts acquire the property of secreting metalloproteinases (MMP), such as collagenase, gelatinase, elastase etc. through modulation by cytokines or other inflammatory mediators (Lim H., Kim HP, Planta Medica, 2007, 12:1267-1274). Balb 3T3 cells (4*10^6 cells/ms) are inoculated in a culture medium (DMEM + 10% FBS) containing a type 1 collagen 3D gel supplemented with increasing concentrations of the test compound. After incubation for 48 hours at 37°C in 5% CO2, the collagen content is measured by means of an indirect method (hydroxyproline content); in parallel, the effect of treatment on cell viability, or on the growth inhibitory effect, is also assessed. The result is expressed as the %age of hydroxyproline present in the 3D gel, compared to the control, or untreated, culture (NB: the collagen content in the absence of cells is reported as positive control). From the results obtained, it is evident that treatment with 3,5 dicaffeoyl-4-malonylquinic acid is effective up to a concentration of 400 µg/ml. For higher concentrations, the collagen content increases purely as a result of the reduced number of cells.

[4] = UV absorption (sun-screen activity), spectrophotometry 250-400 nm; assay type: physicochemical
Excerpt: This example reports the test to determine the UV absorption of the molecule 3,5-dicaffeoyl-4-malonylquinic acid compared to a commercially available molecule widely used as a sun screen (PARSOL MCX).
The compounds have been examined in an aqueous solution of: • 0.2 M phosphate buffer pH 5.0 • 0.1 M HCl solution at pH 1.0.
The pH 5.0 buffer has been selected as the condition used most frequently in the preparation of sun screens. The pH 1.0 solution has been examined in order to also observe the stability of the compounds at extreme pH values.
The analyses have been conducted using a Shimadzu model UV 1601 spectrophotometer, analysing the spectrum from 250 nm to 400 nm in order to ascertain the absorption of UVA and UVB.
The results report the absorption values at maximum wavelength (λ Max) and at 330 nm, this being the wavelength most frequently used for quantitative measurements for the products in question.
The values are expressed in: • specific extinction, corresponding to the extinction at the given λ for a solution at a concentration of 1.0 µg/mL. • Epsilon = the molar absorption, calculated using the formula Epsilon = A/C*L [formula] where A is the absorption value in mAU, C is the concentration of the solution in moles and L is the path length of the solutions in cm (always 1 cm).

[5] = system: DNBS induced colitis model; assay: DNBS induced colitis model in rats (anti-inflammatory activity); assay type: in vivo, Sprague-Dawley rats; conditions: four days after DNBS
Excerpt: Evaluation of the anti- inflammatory activity of 3, 5-dicaffeoyl-4-malonylquinic acid has been determined on an in vivo induced colitis model. Colitis has been induced in rats using a colon inflammation model, stimulated by DNBS ([…] acid). After 4 days of induction of inflammation, the following parameters have been evaluated: determination of colon damage by means of morphological and histological analysis; determination of myeloperoxidase activity and determination of body weight. The animals used have been subdivided into four experimental groups (10 Sprague-Dawley rats weighing 200-250 g in each group) : • one control group, to which only carrier has been administered (CTR); • one group, to which DNBS plus carrier has been administered (DNBS); • one group, to which DNBS and 3,5-dicaffeoyl-4-malonylquinic acid has been administered: the compound has been administered orally at a concentration of 2 mg/kg for 4 consecutive days following the administration of DNBS; • one group, to which DNBS and 3,5-dicaffeoyl-4-malonylquinic acid has been administered: the compound has been administered orally at a concentration of 0.2 mg/kg for 4 consecutive days following the administration of DNBS.
Four days after the administration of DNBS, the following investigations have been conducted: • evaluation of colon damage by means of morphological and histological analysis (a score is assigned on the basis of the damage observed); • evaluation of myeloperoxidase activity and • determination of body weight.

[6] = Antioxidant activity by the DPPH method; assay type: biochemical
Excerpt: The antioxidant activity of the compound 3,5-dicaffeoyl-4-malonylquinic acid compared to known molecules such as ascorbic acid and rutin, has been determined by means of the DPPH method, according to the instructions reported in J. Buenger et al.; International Journal of Cosmetic Science, 2006, 28: 135-146.

[7] = system: type-2 HSV virus; assay: Anti-HSV2 antiviral activity in Vero cell model (XTT read-out); assay type: cell-based, type-2 Herpes simplex virus (HSV) strain 333; conditions: at a concentration of 200 µg/ml; compared to positive control (infected, no test substance); MOI 0.1; 72 hours
Description: The antiviral activity of 3,5-dicaffeoyl-4-malonylquinic acid towards type-2 HSV virus has been assayed using a Vero cell model. The assay has been conducted using acyclovir as a comparator.
Vero cells have been seeded into 96 well plates at a concentration of 5x10^4 cells/well. After 4 hours incubation at 37°C in 5% CO2, the cells have been infected with strain 333 of the type-2 Herpes simplex virus (HSV) at a multiplicity of infection (MOI) of 0.1 infective viral particles/cell. Various concentrations of 3,5-dicaffeoyl-4-malonylquinic acid (CA1) have been added in triplicate to the cell monolayers. Some wells have been infected in the absence of test compound (POSITIVE CONTROL), others have not been infected and have not been treated with the test compound (NEGATIVE CONTROL), others still have been treated with various concentrations of acyclovir (ACYC), representing the comparator substance. The infected cells have then been incubated in medium plus 2% FBS for 72 hours. On completion of said incubation period, the medium has been removed from each well by aspiration. Following washing in PBS and aspiration, 50 µl of a solution consisting of […] and 1 mg/ml XTT has been added to each well. […] The optical density has been measured using an ELISA plate reader set at a wavelength of 450 nm and 630 nm.

[8] = system: mouse B16F1 melanoma cells; assay: Inhibition of MSH-stimulated melanin production (depigmenting activity); assay type: cell-based; conditions: 1 mg/mL, 100 nM MSH, 24 hours; for % inhibition vs AK: relative to kojic acid
Description: The bleaching activity of the compound obtained by cell culture of Centella asiatica has been determined by evaluating the inhibition of melanin production, stimulated by the addition of MSH (melanocyte stimulating hormone) in mouse B16F1 melanoma cells. The test has been prepared by seeding mouse B16F1 melanoma cells in DMEM culture medium + 10% FBS in 25 cm^2 flasks. On reaching 80% confluency, the culture medium has been replaced with conditioned medium (containing 100 nM MSH and the test compounds). The cells in the conditioned medium have been incubated for 24 hours at 37°C and 5% CO2. On termination of incubation, the cells have been washed twice with PBS and then detached using a Trypsin-EDTA solution. After washing twice with PBS, the detached cells have been resuspended in the same solution. A small aliquot has been removed from the suspension for the purpose of conducting the MTT cell viability test, while the remainder has been used to extract the cell melanin content. The melanin content has been determined by spectrophotometric measurements at 405 nm, and calculated by means of a calibration curve obtained using a melanin standard. The optical density value obtained has been normalised for the number of viable cells obtained by means of the MTT test. The percentage inhibition of melanin production has been calculated from the percentage ratio between the value obtained from the cells treated with the extracts, and the value obtained from the control cells, treated with MSH alone. The results obtained from testing the compound at a concentration of 1 mg/ml compared to kojic acid at the same concentration, are reported in table 8 below: TABLE 8

[9] = pH 1.0, second line, printed beside 326 nm (330 nm line empty)
[10] = pH 5.0 (0.2 M phosphate buffer), λ Max line
[11] = pH 5.0, second line, printed beside 325 nm (330 nm line empty)
[12] = DNBS + 0.2 mg/kg orally for 4 consecutive days
[13] = DNBS + 2 mg/kg orally for 4 consecutive days

Compound: O=C(O)CC(=O)OC1C(OC(=O)/C=C/c2ccc(O)c(O)c2)CC(O)(C(=O)O)CC1OC(=O)/C=C/c1ccc(O)c(O)c1 (stereo not shown) [3,5-dicaffeoyl-4-malonylquinic acid]
T7d ([1]; 5mg/ml, sample at 7 days, 30°C): <100 CFU/ml
antimicrobial activity ([1]; at a concentration of 5 mg/ml): exerts antimicrobial activity
T7d ([2]; 2 mg/ml): <100 CFU/ml
T7d ([2]; 5mg/ml): <100 CFU/ml
antimicrobial activity ([2]; at a concentration of 2 mg/ml): exerts antimicrobial activity
concentration up to which treatment is effective (collagen content, hydroxyproline) [3]: ≤ 400 µg/mL
Epsilon ([4]; pH 1.0 (0.1 M HCl), λ Max line): 28.539
Spec. abs. (1 µg/ml) ([4]; pH 1.0 (0.1 M HCl), λ Max line): 47.9 mAU
Epsilon [4, 9]: 28.138
Spec. abs. (1 µg/ml) [4, 9]: 47.2 mAU
Epsilon [4, 10]: 30.602
Spec. abs. (1 µg/ml) [4, 10]: 51.3 mAU
Epsilon [4, 11]: 29.972
Spec. abs. (1 µg/ml) [4, 11]: 50.3 mAU
Histological score [5, 12]: 1.60
Myeloperoxidase activity [5, 12]: 513.00 U/g fresh weight
Histological score [5, 13]: 1.55
Myeloperoxidase activity [5, 13]: 486.90 U/g fresh weight
IC50 [6]: 3760 nM
antiviral activity [7]: good antiviral activity
% inhibition ([8]; melanin production): 33.8%
% inhibition vs AK [8]: 48%

IC50 [6]: 1000 nM
Compound: O=C1O[C@H]([C@@H](O)CO)C(O)=C1O [Ascorbic acid, reference compound]

Compound: O=c1cc(CO)occ1O [Kojic acid, reference compound]
inhibition at 1000 µg/mL ([8]; Mus musculus, B16-F1, melanin production): 70%
% inhibition vs AK [8]: 100%
